Where two headings read alike, the source gives them in different places.
How the values were obtained:
[1] = parameters: method as in earlier work; details: optimized rivaroxaban model input, cited from earlier work
[2] = Dissolution tests of formulations in biorelevant media (USP 2); assay type: physicochemical; details: formulation, 500 and 900 mL FaSSIF or FeSSIF media
Method: Dissolution tests employing biorelevant media have gained widespread utilization in formulation development, offering valuable insights into the behavior of APIs and their respective formulations within the GI tract. In this study, dissolution behavior was assessed using the calibrated USP 2 apparatus (Pion Scientific Instruments, Billerica, MA, USA) across various media, including FaSSGF, FaSSIF, and FeSSIF. The fasted gastric environment was simulated with 300 mL of FaSSGF medium, while FaSSIF and FeSSIF media were used to mimic the intestinal conditions under fasted and fed states, with volumes of 500 and 900 mL, respectively. Dissolution experiments were conducted at a paddle speed of 75 rpm, with the medium temperature maintained at 37 ± 0.5 °C. Sample concentrations were monitored at 1 min intervals via an in situ fiber-optic UV dissolution real-time monitoring system. All experiments were conducted in triplicate.

[3] = in vivo, cited from earlier work
[4] = ticagrelor; supplement ref 17; cited from earlier work

| SMILES | PAMPA ([1]; Fasted (FaSSIF)) | PAMPA ([1]; Fed (FeSSIF)) | dissolution percentages [2] | metabolic fraction of CYP2J2 to the systemic clearance ([3]; supplement ref 1) | metabolic fraction of CYP3A4 to the systemic clearance ([3]; supplement ref 1) | parent drug directly excreted by the kidney ([3]; supplement ref 1) | parent drug directly excreted by the liver ([3]; supplement ref 1) [%] | contribution of liver hydrolases to systemic clearance ([3]; supplement ref 2) | CLR typical renal clearance [4] [L/h] |
| --- | --- | --- | --- | --- | --- | --- | --- | --- | --- |
| O=C(NC[C@H]1CN(c2ccc(N3CCOCC3=O)cc2)C(=O)O1)c1ccc(Cl)s1 [Rivaroxaban] | 52.6 10E-06 cm/s | 40.80 10E-06 cm/s | below 80% | about 14% | approximately 18% | about 36% | ~7 | about 14% | – |
| CCCSc1nc(N[C@@H]2C[C@H]2c2ccc(F)c(F)c2)c2nnn([C@@H]3C[C@H](OCCO)[C@@H](O)[C@H]3O)c2n1 [Ticagrelor] | – | – | – | – | – | – | – | – | 0.00584 |

Reference: article PMC11511194, “Key Factors for Improving Predictive Accuracy and Avoiding Overparameterization of the PBPK Absorption Model in Food Effect Studies of Weakly Basic Water-Insoluble Compounds in Immediate Release Formulations” (Pharmaceutics, 2024)
